Measured values: paper PMC11933534, “Favipiravir induces HuNoV viral mutagenesis and infectivity loss with clinical improvement in immunocompromised patients” (Clinical Immunology (Orlando, Fla.), 2024)
Read-outs that look alike come from different tables or passages of the source.

Legend:
HuNoV [1] = test: Stool HuNoV viral load (RT-qPCR Ct) in treated patients; format: in vivo, human
[2] = Adverse events during off-label treatment of patients; format: in vivo, human
HuNoV GII.4 Sydney[P16] = test: Antiviral treatment of HuNoV-infected zebrafish larvae (viral RNA by RT-qPCR); format: in vivo; settings: for Reduction in viral load with post-treatment sample: favipiravir 25 ng, inoculum P1 SS F carrying RdRp A44S change
Method: (§1) First, compounds were dissolved in 100% DMSO (spectroscopy grade). To determine the correct dose for pericardial injections in zebrafish larvae of all compounds (i.e. favipiravir, tizoxanide and their 1:1 combination), a weight-dependent conversion was applied. For this purpose, the optimized and increased clinical dose of 400 mg favipiravir TDS and 200 mg tizoxanide BD was used. To ensure the weight-converted dose was not toxic for zebrafish larvae of 3 days post fertilization, a toxicity analysis was performed. […] The following parameters were investigated: touch response, morphology, posture, oedema, signs of necrosis, swim bladder and heartbeat.
Zebrafish larvae were anesthetized and positioned as described previously, in short: zebrafish larvae of 3 days post fertilization were anesthetized and transferred to an agarose mold to position them on their dorsal side with the yolk facing upward. In every experiment, the injection needle was calibrated to ensure the precision of the injection volume. Microinjection was performed using an M3301R Manual Micromanipulator (WPI, Friedberg, Germany) and a FemtoJet 4i pressure microinjector (Eppendorf, Hamburg, Germany). Compound-treated zebrafish larvae received a 1 nL (1.5 nL in case of the combination treatment) injection of compound in the pericardial cavity, while negative control zebrafish were injected with an equal volume of DMSO. Subsequently, the zebrafish larvae received an injection of 3 nL virus in the yolk. After both injections, zebrafish larvae were transferred to 6-well plates with Danieau's solution and further maintained in an incubator with a 14/10 h light/dark cycle at 32 °C.
Zebrafish larvae were homogenized (Precellys 24, Bertin Technologies, Montigny-le-Bretonneux, France), the homogenates were cleared by centrifugation (5 min, 9000 g), and RNA was extracted using the Direct-zol RNA kit (Zymo Research, Irvine, CA, USA), according to the manufacturer's protocol. RNA levels were quantified with a one-step RT-qPCR (iTaq Universal Probes One-Step Kit, Bio-Rad, Hercules, CA, USA) as previously described.

zebrafish larvae = test: Toxicity analysis in zebrafish larvae; format: in vivo; settings: 25 ng favipiravir or 4 ng tizoxanide, drug administered alone
Method: as §1

HuNoV [3] = test: HuNoV whole-genome sequencing of longitudinal patient stool samples; design: species or system human
Text: Stool samples were collected from the patients. Full-length HuNoV genome sequences were obtained from samples using SureSelectXT target enrichment and Illumina sequencing. For each patient, a unique patient reference was generated by mapping the remaining reads of the first sample to the genotype reference from GenBank using bwa-mem. Reads from the subsequent samples of the same patient were mapped to this patient reference. Consensus sequences were aligned using MAFFT [58]. Only genomes with >80% genome coverage and a mean read depth of 100 or above were included in downstream analysis. Minority allele variants with a frequency of above 2% and a minimum of 2 supporting reads were identified at sites with a read depth of ≥5 using VarScan. For plotting polymorphism frequency, we have determined Watterson's theta which normalises for reading depth. Maximum likelihood phylogenies were constructed using RAxML [13], with the GTR model and 1000 bootstrap replicates. General data processing was carried out in R 3.6.1 using Rstudio 1.2. with the tidyverse family of packages (v1.2.1). Figures were made using the ggplot2 package.

[4] = design: method as in PMID 30485769; settings: P2; favipiravir 1200 mg 12-hourly; caused treatment interruptions; cited from earlier work

NC(=O)c1nc(F)c[nH]c1=O [favipiravir]
Stool HuNoV viral load (HuNoV [1]; P3, favipiravir 12-hourly 1200 mg, before treatment max Ct 21.2): 30.9 Ct | Stool HuNoV viral load (HuNoV [1]; P4, favipiravir 400 mg 8-hourly + nitazoxanide 200 mg 12-hourly, max Ct, before treatment max Ct 17.9): 27.8 Ct | Adverse event ([2]; P1, favipiravir 200 mg 8-hourly + nitazoxanide 200 mg 12-hourly, suspected to be drug-induced, several medications discontinued): conjugated hyperbilirubinaemia | Recurrence of conjugated hyperbilirubinaemia ([2]; P1, restarted favipiravir 400 mg 8-hourly + nitazoxanide 200 mg 12-hourly): did not recur | Adverse event ([2]; P3, favipiravir 12-hourly 400 mg increased to 800 mg, transaminitis did not recur): nail discolouration and frequent headaches | Adverse event ([2]; P3, favipiravir 12-hourly 1200 mg, discontinued after one month): progressing transaminitis | Adverse event ([2]; P4, after 2 months of favipiravir 400 mg 8-hourly + nitazoxanide, nail discolouration reversed after discontinuation): nail discolouration and intermittent jaundice | Reduction in viral RNA copies/zebrafish (HuNoV GII.4 Sydney[P16]; favipiravir 25 ng single pericardial injection, inoculum P1 pre-treatment SS A, day 3 pi (peak), p = 0.0263): 1.6 log10 | Reduction in viral load with post-treatment sample (HuNoV GII.4 Sydney[P16]): no reduction in viral load | Reduction in viral load with post-treatment sample (HuNoV GII.4 Sydney[P16]; listed as Favipiravir): cannot reduce | Reduction of HuNoV replication (HuNoV GII.4 Sydney[P16]; monotherapy favipiravir 25 ng or tizoxanide 4 ng, in-house GII.4 Sydney[P16] stool sample, peak 2 dpi, p = 0.0006 and 0.001): > 1 log10 | Toxicity in the zebrafish larval model (zebrafish larvae): did not show toxicity | Favipiravir-associated viral sequence changes (HuNoV [3]; P1, P2 and P4, coinciding with periods of favipiravir treatment, reducing after cessation): accumulation of A to G and T to C sequence changes | Favipiravir-associated viral sequence changes (HuNoV [3]; P3, six samples): without evidence of accumulation of A to G and T to C favipiravir-associated sequence changes | Adverse event [4]: recurring transaminitis of undetermined aetiology
